Assay type in all cases: cell-based
For one assay, the system named is Bacillus cereus. Description: Agar plate disc-diffusion, antibacterial activity (inhibition zone). To be noted: nutrient agar, 37° C., 48 hours. How it is done:
(§1) The agar plate disc-diffusion method was applied. […] The discs were then placed onto the surface of agar plates (nutrient agar for bacteria and Sabouraud's dextrose agar for fungi) seeded with the test organism. Each plate contained 15 mL of the agar medium, previously seeded with 0.2 mL of the broth culture of each organism pregrown for 18 hours. The plates were incubated at 37° C. for 48 hours, and 72 hours for fungi. The inhibition zones were measured in milimeters. Discs impregnated with DMSO were used as a control, and its inhibition zone was subtracted from the tested compound actual inhibition zone.
(§2) The antibacterial activity was screened against gram positive bacteria namely Bacillus cereus and Staphylococcus aureus and gram-negative bacterial strains namely Pseudomonas aeruginosa and Escherichia coli, while the antifungal activity was screened against Aspergillus flavus and Chrysosporium keratinophilum as shown in Table 1 and 2.
On the technique in general: Agar diffusion results depend on both activity and mobility in agar.

Another assay has as its system Escherichia coli. The assay is described as above. To be noted: nutrient agar, 37° C., 48 hours. How it is done: as §1, §2
The next assay has as its system Pseudomonas aeruginosa. Described as above. Particulars: nutrient agar, 37° C., 48 hours. How it is done:
as §1, §2

The test system of the next assay is Staphylococcus aureus. Described as above. Particulars: nutrient agar, 37° C., 48 hours. How it is done: as §1, §2
Another assay has as its system Aspergillus flavus. Description: Agar plate disc-diffusion, antifungal activity (inhibition zone). To be noted: Sabouraud's dextrose agar, 72 hours. How it is done: as §1, §2
The subject of assay [1] is Chrysosporium keratinophilum. The description is as above. To be noted: Sabouraud's dextrose agar, 72 hours. How it is done: as §1, §2
Setting [2] is: A = concentration of comp. = 10,000 uL.
The mark [3] stands for this setting: B = concentration of comp. = 30,000 uL.
The mark [4] stands for this setting: C = concentration of comp. = 50,000 uL.

The structures appear in SMILES notation.

In the case of `O=C(O)c1cn(C2CC2)c2cc(N3CCNCC3)c(F)cc2c1=O` [Cip., ciprofloxacin], the inhibition zone is on record as 29 mm in the assay with Bacillus cereus (setting [2]); 30 mm with Bacillus cereus (setting [3]); 42 mm in the assay with Bacillus cereus (setting [4]); 30 mm with Escherichia coli (setting [2]); 39 mm in the assay with Escherichia coli (setting [3]); 60 mm with Escherichia coli (setting [4]). The inhibition zone in the assay on Pseudomonas aeruginosa (setting [2]) is reported as 29 mm; with Pseudomonas aeruginosa (setting [3]), 30 mm; with Pseudomonas aeruginosa (setting [4]) it was 53 mm; with Staphylococcus aureus (setting [2]), 43 mm; with Staphylococcus aureus (setting [3]) it was 44 mm; in the assay with Staphylococcus aureus (setting [4]), 53 mm. Further, the inhibition zone in the assay with Aspergillus flavus (setting [2]) is 29 mm; with Aspergillus flavus (setting [3]), 30 mm; in the assay on Aspergillus flavus (setting [4]), 42 mm; in assay [1] (setting [2]) it was 29 mm; in assay [1] (setting [3]), 30 mm; in assay [1] (setting [4]), 53 mm.

Turning to `COc1ccc(/C(N)=N/OC(=O)CSc2nnc(-c3ccccc3)o2)cc1OC` [Compound 3, 3,4-dimethoxy-N′-(2-(5-phenyl-1,3,4-oxadiazol-2-ylthio)acetoxy)benzimidamide], the inhibition zone was found to be 25 mm in the assay on Bacillus cereus (setting [2]); 29 mm in the assay with Bacillus cereus (setting [3]); 41 mm in the assay on Bacillus cereus (setting [4]); 26 mm in the assay with Escherichia coli (setting [2]); 35 mm in the assay with Escherichia coli (setting [3]); 50 mm with Escherichia coli (setting [4]). Besides, the inhibition zone stood at 20 mm with Pseudomonas aeruginosa (setting [2]); 24 mm in the assay on Pseudomonas aeruginosa (setting [3]); 37 mm with Pseudomonas aeruginosa (setting [4]); 24 mm in the assay on Staphylococcus aureus (setting [2]); 27 mm with Staphylococcus aureus (setting [3]); 43 mm with Staphylococcus aureus (setting [4]). Besides, the inhibition zone in the assay on Aspergillus flavus (setting [2]) was determined as 23 mm; in the assay with Aspergillus flavus (setting [3]), 27 mm; in the assay on Aspergillus flavus (setting [4]), 40 mm; in assay [1] (setting [2]), 24 mm; in assay [1] (setting [3]) it was 26 mm; in assay [1] (setting [4]), 40 mm.

The values above are taken from US11905265B1, “3,4-dimethoxy-n′-(2-(5-phenyl-1,3,4-oxadiazol-2ylthio)acetoxy)benzimidamide as an antimicrobial compound” (KING FAISAL UNIVERSITY, priority 2023, dated 2024).
